According to EP4467141A1, “PYRAZOLO-QUINOLINES AS SELECTIVE INHIBITORS OF GENOTOXIC STRESS-INDUCED IKK/NF- KB PATHWAYS FOR CANCER THERAPY” (Max-Delbrück-Centrum für Molekulare Medizin in der …, priority 2023, dated 2024):

Tests used:
Assay in all cases: Kinase panel study
Format in all cases: biochemical
Details in all cases: read-out: Percentage of inhibition; for inhibition at 1 µM: 1000nM; for inhibition at 10 µM: 10000nM
[1] = target: T1, CDK17/cyclin Y (Homo sapiens, UniProt Q00537)
T1 construct: purchased Thermo Fisher Scientific
How it was run: (§1)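 Inhibition was measured in an outsourced in vitro kinase panel using the ZLyte or Adapta format under the provider's standard procedures. Values are percent inhibition at 10 µM or 1 µM compound, and IC50s were also obtained.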

[2] = target: T2, CDK4/cyclin D3 (Homo sapiens, UniProt P11802)
T2 construct: purchased Thermo Fisher Scientific
T2 sequence (P11802 whole entry): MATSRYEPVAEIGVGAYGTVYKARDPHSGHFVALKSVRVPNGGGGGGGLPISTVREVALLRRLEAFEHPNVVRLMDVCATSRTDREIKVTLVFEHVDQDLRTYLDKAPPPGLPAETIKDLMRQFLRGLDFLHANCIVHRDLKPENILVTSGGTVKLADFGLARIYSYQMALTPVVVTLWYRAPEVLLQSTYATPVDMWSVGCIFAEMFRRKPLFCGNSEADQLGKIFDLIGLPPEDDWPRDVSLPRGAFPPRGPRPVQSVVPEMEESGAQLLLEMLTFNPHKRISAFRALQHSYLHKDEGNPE
T2 sequence (P30281 whole entry partner): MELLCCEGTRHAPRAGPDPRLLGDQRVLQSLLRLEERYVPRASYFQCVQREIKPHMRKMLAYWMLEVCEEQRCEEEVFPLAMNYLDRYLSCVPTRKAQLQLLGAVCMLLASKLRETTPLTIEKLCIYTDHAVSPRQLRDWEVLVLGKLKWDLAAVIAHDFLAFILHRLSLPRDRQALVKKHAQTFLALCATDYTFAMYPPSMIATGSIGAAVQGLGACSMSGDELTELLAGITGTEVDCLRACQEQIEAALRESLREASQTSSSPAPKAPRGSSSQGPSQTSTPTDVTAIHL
How it was run: as §1

[3] = target: T3, CSNK1A1 (CK1 alpha 1) (Homo sapiens, UniProt P48729)
T3 construct: purchased Thermo Fisher Scientific
How it was run: as §1

[4] = target: T4, EGFR (ErbB1) T790M C797S L858R (Homo sapiens, UniProt P00533, C797S/L858R/T790M)
T4 construct: purchased Thermo Fisher Scientific
T4 sequence (P00533 25-1210 T790M/C797S/L858R): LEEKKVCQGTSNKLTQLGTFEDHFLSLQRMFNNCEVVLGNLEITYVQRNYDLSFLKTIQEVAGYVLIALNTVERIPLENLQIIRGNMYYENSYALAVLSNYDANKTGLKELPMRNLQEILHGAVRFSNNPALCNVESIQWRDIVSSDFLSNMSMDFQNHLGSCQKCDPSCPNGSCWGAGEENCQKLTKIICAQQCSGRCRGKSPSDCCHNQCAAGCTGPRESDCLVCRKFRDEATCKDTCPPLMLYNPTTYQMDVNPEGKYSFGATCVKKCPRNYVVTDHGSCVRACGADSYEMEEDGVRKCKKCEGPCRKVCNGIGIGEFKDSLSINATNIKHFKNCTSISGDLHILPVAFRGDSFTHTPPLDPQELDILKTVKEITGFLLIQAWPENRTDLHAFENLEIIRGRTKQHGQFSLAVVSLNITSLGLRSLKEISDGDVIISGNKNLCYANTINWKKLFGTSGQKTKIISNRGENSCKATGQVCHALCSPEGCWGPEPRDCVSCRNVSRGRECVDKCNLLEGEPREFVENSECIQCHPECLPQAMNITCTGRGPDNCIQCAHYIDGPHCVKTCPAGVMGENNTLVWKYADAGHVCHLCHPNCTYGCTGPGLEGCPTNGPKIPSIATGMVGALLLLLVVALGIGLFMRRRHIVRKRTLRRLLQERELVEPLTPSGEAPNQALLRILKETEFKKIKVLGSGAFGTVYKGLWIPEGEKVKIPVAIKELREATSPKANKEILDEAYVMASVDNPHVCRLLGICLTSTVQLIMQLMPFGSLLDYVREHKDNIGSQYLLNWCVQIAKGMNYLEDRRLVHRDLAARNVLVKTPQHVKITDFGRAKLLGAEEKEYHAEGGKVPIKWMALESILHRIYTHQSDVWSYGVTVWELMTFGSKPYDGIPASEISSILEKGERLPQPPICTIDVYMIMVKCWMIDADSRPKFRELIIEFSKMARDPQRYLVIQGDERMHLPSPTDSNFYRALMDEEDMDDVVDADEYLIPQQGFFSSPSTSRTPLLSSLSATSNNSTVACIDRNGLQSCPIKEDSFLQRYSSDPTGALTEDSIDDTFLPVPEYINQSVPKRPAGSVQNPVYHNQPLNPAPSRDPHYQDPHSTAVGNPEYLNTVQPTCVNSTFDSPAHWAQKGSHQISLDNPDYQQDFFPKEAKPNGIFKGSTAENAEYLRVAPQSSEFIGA
How it was run: as §1

[5] = target: T5, FER (Homo sapiens, UniProt P16591)
T5 construct: purchased Thermo Fisher Scientific
T5 sequence (P16591 whole entry): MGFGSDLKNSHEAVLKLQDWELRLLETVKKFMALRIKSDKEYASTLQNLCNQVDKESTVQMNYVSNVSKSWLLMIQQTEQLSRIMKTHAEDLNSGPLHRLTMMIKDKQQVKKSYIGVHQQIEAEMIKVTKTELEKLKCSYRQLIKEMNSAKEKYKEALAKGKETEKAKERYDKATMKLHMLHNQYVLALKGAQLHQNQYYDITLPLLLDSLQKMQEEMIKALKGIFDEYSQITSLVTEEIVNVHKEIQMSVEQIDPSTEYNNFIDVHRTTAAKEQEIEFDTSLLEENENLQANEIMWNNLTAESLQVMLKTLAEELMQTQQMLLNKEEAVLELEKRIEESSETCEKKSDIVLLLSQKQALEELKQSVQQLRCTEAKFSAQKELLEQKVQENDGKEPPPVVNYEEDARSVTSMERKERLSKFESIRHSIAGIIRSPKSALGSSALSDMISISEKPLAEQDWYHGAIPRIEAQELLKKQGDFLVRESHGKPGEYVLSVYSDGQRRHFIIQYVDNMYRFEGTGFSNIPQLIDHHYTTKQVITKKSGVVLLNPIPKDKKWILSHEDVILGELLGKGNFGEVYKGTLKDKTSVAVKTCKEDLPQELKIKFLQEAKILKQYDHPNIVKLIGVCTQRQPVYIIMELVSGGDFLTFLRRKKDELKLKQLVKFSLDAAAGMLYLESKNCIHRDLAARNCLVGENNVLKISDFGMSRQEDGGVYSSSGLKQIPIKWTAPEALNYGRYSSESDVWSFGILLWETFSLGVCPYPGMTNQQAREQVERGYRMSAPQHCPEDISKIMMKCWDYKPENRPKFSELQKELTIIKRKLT
How it was run: as §1

[6] = target: T6, FGFR3 (Homo sapiens, UniProt P22607)
T6 construct: purchased Thermo Fisher Scientific
T6 sequence (P22607 23-806): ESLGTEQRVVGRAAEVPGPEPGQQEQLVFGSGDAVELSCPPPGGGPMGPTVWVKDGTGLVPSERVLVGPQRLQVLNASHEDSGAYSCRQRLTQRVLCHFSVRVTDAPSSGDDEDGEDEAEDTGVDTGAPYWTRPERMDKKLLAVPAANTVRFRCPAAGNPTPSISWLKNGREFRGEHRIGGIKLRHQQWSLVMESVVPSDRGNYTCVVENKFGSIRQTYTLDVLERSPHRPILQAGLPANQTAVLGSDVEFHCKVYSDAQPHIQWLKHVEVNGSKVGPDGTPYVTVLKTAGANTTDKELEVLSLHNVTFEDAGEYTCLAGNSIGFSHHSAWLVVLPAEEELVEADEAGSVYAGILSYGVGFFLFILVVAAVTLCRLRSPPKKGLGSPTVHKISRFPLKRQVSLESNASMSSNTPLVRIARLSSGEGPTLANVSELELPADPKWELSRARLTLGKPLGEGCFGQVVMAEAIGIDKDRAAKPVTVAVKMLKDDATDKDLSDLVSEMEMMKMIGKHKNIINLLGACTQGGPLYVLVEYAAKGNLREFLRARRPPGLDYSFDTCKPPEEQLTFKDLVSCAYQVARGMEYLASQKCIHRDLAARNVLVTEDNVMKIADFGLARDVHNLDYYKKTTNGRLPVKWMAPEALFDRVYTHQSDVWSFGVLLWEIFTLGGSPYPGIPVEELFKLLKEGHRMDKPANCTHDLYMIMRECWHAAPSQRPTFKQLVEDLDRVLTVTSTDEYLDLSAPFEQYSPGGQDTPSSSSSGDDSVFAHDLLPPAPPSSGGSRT
How it was run: as §1

[7] = target: T7, FGFR3 K650E (Homo sapiens, UniProt P22607, K650E)
T7 construct: purchased Thermo Fisher Scientific
T7 sequence (P22607 23-806 K650E): as the sequence (P22607 23-806) above, with K628E counted along it
How it was run: as §1

[8] = target: T8, MAPK3 (ERK1) (Homo sapiens, UniProt P27361)
T8 construct: purchased Thermo Fisher Scientific
How it was run: as §1

[9] = target: T9, MARK3 (Homo sapiens, UniProt P27448)
T9 construct: purchased Thermo Fisher Scientific
T9 sequence (P27448 whole entry): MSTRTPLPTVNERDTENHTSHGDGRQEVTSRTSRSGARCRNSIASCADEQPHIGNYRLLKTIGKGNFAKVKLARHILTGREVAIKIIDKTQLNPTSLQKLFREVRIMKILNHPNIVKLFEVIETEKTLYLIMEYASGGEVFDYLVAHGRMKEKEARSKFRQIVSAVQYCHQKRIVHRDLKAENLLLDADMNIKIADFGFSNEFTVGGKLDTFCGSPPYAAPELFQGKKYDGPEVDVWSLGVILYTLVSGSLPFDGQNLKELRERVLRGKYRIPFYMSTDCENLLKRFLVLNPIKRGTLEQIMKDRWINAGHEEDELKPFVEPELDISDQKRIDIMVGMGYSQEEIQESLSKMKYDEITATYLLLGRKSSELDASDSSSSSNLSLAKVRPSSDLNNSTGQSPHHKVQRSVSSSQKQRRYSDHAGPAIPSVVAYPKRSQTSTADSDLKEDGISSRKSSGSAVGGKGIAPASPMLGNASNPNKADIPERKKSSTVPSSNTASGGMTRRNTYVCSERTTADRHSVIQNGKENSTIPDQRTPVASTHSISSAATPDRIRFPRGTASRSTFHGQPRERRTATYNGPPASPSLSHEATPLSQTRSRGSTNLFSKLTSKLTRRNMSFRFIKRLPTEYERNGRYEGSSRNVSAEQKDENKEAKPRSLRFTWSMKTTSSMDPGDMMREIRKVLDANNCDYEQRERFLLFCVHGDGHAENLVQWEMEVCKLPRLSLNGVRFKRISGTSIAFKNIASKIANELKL
How it was run: as §1

[10] = target: T10, PHKG2 (Homo sapiens, UniProt P15735)
T10 construct: purchased Thermo Fisher Scientific
T10 sequence (P15735 1-406): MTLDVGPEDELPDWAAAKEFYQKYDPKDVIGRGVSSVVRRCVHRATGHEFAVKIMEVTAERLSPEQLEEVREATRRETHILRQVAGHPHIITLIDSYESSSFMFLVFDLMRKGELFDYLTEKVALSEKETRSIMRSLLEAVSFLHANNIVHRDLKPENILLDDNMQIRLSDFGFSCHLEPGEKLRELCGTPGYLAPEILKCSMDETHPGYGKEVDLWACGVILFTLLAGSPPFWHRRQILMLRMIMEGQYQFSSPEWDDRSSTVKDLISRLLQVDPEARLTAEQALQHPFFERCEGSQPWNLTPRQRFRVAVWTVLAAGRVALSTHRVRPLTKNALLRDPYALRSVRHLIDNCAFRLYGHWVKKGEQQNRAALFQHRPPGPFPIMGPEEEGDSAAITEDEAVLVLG
How it was run: as §1

[11] = target: T11, PI4KA (PI4K alpha) (Homo sapiens, UniProt P42356)
T11 construct: purchased Thermo Fisher Scientific
How it was run: as §1

[12] = target: T12, PRKCG (PKC gamma) (Homo sapiens, UniProt P05129)
T12 construct: purchased Thermo Fisher Scientific
How it was run: as §1

[13] = target: T13, PRKX (Homo sapiens, UniProt P51817)
T13 construct: purchased Thermo Fisher Scientific
T13 sequence (P51817 1-358): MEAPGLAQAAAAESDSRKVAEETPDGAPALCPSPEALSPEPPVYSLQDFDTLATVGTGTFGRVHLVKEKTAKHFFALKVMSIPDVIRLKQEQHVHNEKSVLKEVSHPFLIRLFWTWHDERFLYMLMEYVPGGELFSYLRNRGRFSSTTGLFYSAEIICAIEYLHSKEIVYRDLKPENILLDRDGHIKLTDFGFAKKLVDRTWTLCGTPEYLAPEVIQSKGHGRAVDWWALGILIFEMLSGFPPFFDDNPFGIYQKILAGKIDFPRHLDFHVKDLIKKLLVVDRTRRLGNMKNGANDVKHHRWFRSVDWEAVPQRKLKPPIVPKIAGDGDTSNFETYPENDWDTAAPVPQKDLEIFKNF
How it was run: as §1

[14] = target: T14, SGK2 (Homo sapiens, UniProt Q9HBY8)
T14 construct: purchased Thermo Fisher Scientific
T14 sequence (Q9HBY8 1-367): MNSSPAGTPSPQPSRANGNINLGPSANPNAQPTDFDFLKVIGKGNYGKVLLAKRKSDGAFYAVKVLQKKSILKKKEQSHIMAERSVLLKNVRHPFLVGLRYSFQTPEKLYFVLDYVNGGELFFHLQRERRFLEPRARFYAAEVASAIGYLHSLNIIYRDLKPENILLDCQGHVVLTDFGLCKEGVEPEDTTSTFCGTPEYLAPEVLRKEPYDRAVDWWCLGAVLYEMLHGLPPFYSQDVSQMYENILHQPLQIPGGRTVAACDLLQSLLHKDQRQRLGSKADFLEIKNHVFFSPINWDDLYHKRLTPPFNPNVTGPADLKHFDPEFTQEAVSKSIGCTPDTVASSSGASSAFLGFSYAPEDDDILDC
How it was run: as §1

COc1ccc2cc3c(N)nn(C(=O)c4cccc(N(C)C)c4)c3nc2c1 [MW05, (3-Amino-7-methoxypyrazolo[3,4-b]quinolin-1-yl)-[3-(dimethylamino)phenyl]methanone]
inhibition at 1 µM [1]: 8% | inhibition at 10 µM [1]: 21% | inhibition at 1 µM [2]: -6% | inhibition at 10 µM [2]: -8% | inhibition at 1 µM [3]: 2% | inhibition at 10 µM [3]: 1% | inhibition at 1 µM [4]: 1% | inhibition at 10 µM [4]: 2% | inhibition at 1 µM [5]: 7% | inhibition at 10 µM [5]: 0% | inhibition at 1 µM [6]: 1% | inhibition at 10 µM [6]: -8% | inhibition at 1 µM [7]: 8% | inhibition at 10 µM [7]: -3% | inhibition at 1 µM [8]: 14% | inhibition at 10 µM [8]: 11% | inhibition at 1 µM [9]: 3% | inhibition at 10 µM [9]: -5% | inhibition at 1 µM [10]: 6% | inhibition at 10 µM [10]: -3% | inhibition at 1 µM [11]: 1% | inhibition at 10 µM [11]: -1% | inhibition at 1 µM [12]: 11% | inhibition at 10 µM [12]: -3% | inhibition at 1 µM [13]: 8% | inhibition at 10 µM [13]: -2% | inhibition at 1 µM [14]: -3% | inhibition at 10 µM [14]: -11%

COc1ccc2c(c1OC)c(=O)n1c3ccc(O)cc3c3ccnc2c31 [MW01, 5-Hydroxy-10,11-dimethoxy-9H-benzo[c]indolo[3,2,1-ij][1,5]naphthyridin-9-one]
inhibition at 1 µM [1]: 3% | inhibition at 10 µM [1]: 9% | inhibition at 1 µM [2]: -2% | inhibition at 10 µM [2]: -6% | inhibition at 1 µM [3]: 5% | inhibition at 10 µM [3]: 17% | inhibition at 1 µM [4]: 2% | inhibition at 10 µM [4]: 12% | inhibition at 1 µM [5]: 11% | inhibition at 10 µM [5]: 25% | inhibition at 1 µM [6]: 4% | inhibition at 10 µM [6]: 8% | inhibition at 1 µM [7]: 6% | inhibition at 10 µM [7]: 16% | inhibition at 1 µM [8]: 14% | inhibition at 10 µM [8]: 4% | inhibition at 1 µM [9]: 0% | inhibition at 10 µM [9]: 7% | inhibition at 1 µM [10]: 6% | inhibition at 10 µM [10]: 8% | inhibition at 1 µM [11]: 13% | inhibition at 10 µM [11]: 23% | inhibition at 1 µM [12]: 13% | inhibition at 10 µM [12]: 16% | inhibition at 1 µM [13]: 22% | inhibition at 10 µM [13]: 16% | inhibition at 1 µM [14]: 6% | inhibition at 10 µM [14]: 14%
